Patent publication US20170283440A1, “CARM1 INHIBITORS AND USES THEREOF” (Epizyme, Inc., priority 2014, published 2017)

System: asymmetric di-methyl PABP1 in RKO cells
Test: RKO methylation assay (In Cell Western for asymmetric di-methyl PABP1)
Assay type: cell-based
Settings: 48 hours incubation, read-out: Cellular IC50
From the text: RKO adherent cells were purchased from ATCC (American Type Culture Collection), Manassas, Va., USA. DMEM/Glutamax medium, penicillin-streptomycin, heat inactivated fetal bovine serum, 0.05% trypsin and D-PBS were purchased from Life Technologies, Grand Island, N.Y., USA. Odyssey blocking buffer, 800CW goat anti-rabbit IgG (H+L) antibody, and Licor Odyssey infrared scanner were purchased from Licor Biosciences, Lincoln, Nebr., USA. Asymmetric di-methyl PABP1 antibody was purchased from Cell Signaling Technology, Danvers, Mass., USA. Methanol was purchased from VWR, Franklin, Mass., USA. 10% Tween 20 was purchased from KPL, Inc., Gaithersburg, Md., USA. Paraformaldehyde (PFA) was purchased from EM Sciences. DRAQ5 was purchased from Biostatus Limited, Leicestershire, UK.
RKO adherent cells were maintained in growth medium (DMEM/Glutamax medium supplemented with 10% v/v heat inactivated fetal bovine serum and 100 units/mL penicillin-streptomycin) and cultured at 37° C. under 5% CO2.
Compound (100 nL) from a 96-well source plate was added directly to 384 well cell plate. Plates were incubated at 37° C., 5% CO2 for 48 hours. After two days of incubation, plates were brought to room temperature outside of the incubator for ten minutes and blotted on paper towels to remove cell media. Cells were fixed for 20 minutes at room temperature by adding 50 ul of 8% PFA followed by aspiration of supernatant with the Biotek EL406 plate washer. Cells were then permeabilized by addition of 50 μL of ice cold 100% methanol directly to each well and incubated for 30 min at room temperature. After 30 min, plates were transferred to a Biotek EL406 plate washer and washed 2 times with 100 μL per well of wash buffer (IX PBS). Next 60 μL per well of Odyssey blocking buffer (Odyssey Buffer with 0.1% Tween 20 (v/v)) were added to each plate and incubated 1 hour at room temperature. Blocking buffer was removed and 20 μL per well of primary antibody was added (asymmetric-methyl PABP1) diluted 1:400 in Odyssey buffer with 0.1% Tween 20 (v/v)) and plates were incubated overnight (16 hours) at 4° C. Plates were washed 5 times with 100 μL per well of wash buffer. Next 20 μL per well of secondary antibody was added (1:800 800CW goat anti-rabbit IgG (H+L) antibody, 1:2000 DRAQ5 in Odyssey buffer with 0.1% Tween 20 (v/v)) and incubated for 1 hour at room temperature. The plates were washed 5 times with 100 μL per well wash buffer then 2 times with 100 μL per well of water. Plates were allowed to dry at room temperature then imaged on the Licor Odyssey machine which measures integrated intensity at 700 nm and 800 nm wavelengths. Both 700 and 800 channels were scanned.
First, the ratio for each well was determined by:
Each plate included fourteen control wells of DMSO only treatment (minimum inhibition) as well as fourteen control wells for maximum inhibition treated with 20 μM of a reference compound. The average of the ratio values for each control type was calculated and used to determine the percent […] for each test well in the plate. Reference compound was serially diluted three-fold in DMSO for a total of nine test concentrations, beginning at 20 μM.
Percent inhibition was determined and IC50 curves were generated using triplicate wells per concentration of compound.

IC50 [µM] | SMILES
10 to 20 | CC(C)n1ncc2c(N3CCOCC3)cc(-c3cccc(OCC(O)CN)c3)nc21 (stereo not shown) [Example 11-1]

Same assay, conditions: Homo sapiens, 48 hours incubation, read-out: Cellular IC50

SMILES | IC50 [µM]
CNCC(O)COc1cccc(-c2cc(NC(=O)NC3CCOCC3)c3cnn(C(C)C)c3n2)c1 (stereo not shown) [Example 2-1] | > 20
CC(C)n1ncc2c(N3CCOCC3)cc(-c3cccc(OCC(O)CN)c3)nc21 (stereo not shown) [Example 3-1] | 10 to 20
CNC(=O)Nc1cc(-c2cccc(OCC(O)CN)c2)nc2c1cnn2C(C)C (stereo not shown) [Example 8-1] | > 20
CNCC(O)COc1cccc(-c2cc(NCCN)c3cnn(C(C)C)c3n2)c1 (stereo not shown) [Example 9-1] | > 20
COC(=O)Nc1cc(-c2cccc(OCC(O)CN)c2)nc2c1cnn2C(C)C (stereo not shown) [Example 10-1] | > 20
CC(C)n1ncc2c(N3CCOCC3)cc(-c3cccc(OC[C@@H](O)CN)c3)nc21 [Example 12-1] | > 20
CC(C)n1ncc2c(NC(=O)N(C)C)cc(-c3cccc(OCC(O)CN)c3)nc21 (stereo not shown) [Example 14-1] | > 20
CNCC(O)COc1cccc(-c2cc(N(C)C3CCOC3)n3ncc(C(C)C)c3n2)c1 (stereo not shown) [Example 14-6] | > 20
CNCC(O)COc1cccc(-c2cc(NCCCN)c3cnn(C(C)C)c3n2)c1 (stereo not shown) [Example 15-1] | > 20
CC(C)n1ncc2c(NC3CC3)cc(-c3cccc(OCC(O)CN)c3)nc21 (stereo not shown) [Example 15-9] | > 20
CNCC(O)COc1cccc(-c2cc(NC(=O)OC)c3cnn(C(C)C)c3n2)c1 (stereo not shown) [Example 16-1] | 10 to 20
COC(=O)CNc1cc(-c2cccc(OCC(O)CN)c2)nc2c1cnn2C(C)C (stereo not shown) [Example 16-9] | > 20
CCOC(=O)Nc1cc(-c2cccc(OCC(O)CN)c2)nc2c1cnn2C(C)C (stereo not shown) [Example 17-1] | > 20
CNCC(O)COc1cccc(-c2cc(NC3CC3)c3cnn(C(C)C)c3n2)c1 (stereo not shown) [Example 18-9] | > 20
CC(C)n1ncc2c(NC3CCOCC3)cc(-c3cccc(OCC(O)CN)c3)nc21 (stereo not shown) [Example 19-1] | > 20
CNCC(O)COc1cccc(-c2cc(N3CCOCC3)c3cnn(C(C)C)c3n2)c1 (stereo not shown) [Example 20-1] | > 20
CNCC(O)COc1cccc(-c2cc(NC(=O)N(C)C)c3cnn(C(C)C)c3n2)c1 (stereo not shown) [Example 21-1] | > 20
CNCC(O)COc1cccc(-c2cc(NCCCCN)c3cnn(C(C)C)c3n2)c1 (stereo not shown) [Example 22-1] | > 20
CNCC(O)COc1cccc(-c2cc(NC)c3cnn(C(C)C)c3n2)c1 (stereo not shown) [Example 22-9] | > 20
CNCC(O)COc1cccc(-c2cc(NCC(=O)OC)c3cnn(C(C)C)c3n2)c1 (stereo not shown) [Example 23-1] | > 20
CNCC(O)COc1cccc(-c2cc(Nc3ccccn3)c3cnn(C(C)C)c3n2)c1 (stereo not shown) [Example 24-1] | > 20
CC(C)n1ncc2c(NCc3cccnc3)cc(-c3cccc(OCC(O)CN)c3)nc21 (stereo not shown) [Example 25-1] | > 20
CC(C)n1ncc2c(NCc3ccncc3)cc(-c3cccc(OCC(O)CN)c3)nc21 (stereo not shown) [Example 26-1] | > 20
CC(C)n1ncc2c(N(C)C3CCOCC3)cc(-c3cccc(OCC(O)CN)c3)nc21 (stereo not shown) [Example 28-1] | 10 to 20
CNCC(O)COc1cccc(-c2cc(NC3CCOCC3)c3cnn(C(C)C)c3n2)c1 (stereo not shown) [Example 29-1] | 10 to 20
CC(C)n1ncc2c(NCC3CCOCC3)cc(-c3cccc(OCC(O)CN)c3)nc21 (stereo not shown) [Example 30-1] | > 20

Second part, the compound after the results:

IC50 [µM] | SMILES
> 20 | CNCC(O)COc1cccc(-c2cc(NCCCCCN)c3cnn(C(C)C)c3n2)c1 (stereo not shown) [Example 32-1]
10 to 20 | CNCC(O)COc1cccc(-c2cc(N(C)c3ccccn3)c3cnn(C(C)C)c3n2)c1 (stereo not shown) [Example 33-1]
10 to 20 | CNCC(O)COc1cccc(-c2cc(NCc3ccccn3)c3cnn(C(C)C)c3n2)c1 (stereo not shown) [Example 34-1]
> 20 | CC(C)n1ncc2c(NCc3cccc(O)c3)cc(-c3cccc(OCC(O)CN)c3)nc21 (stereo not shown) [Example 35-1]
> 20 | Cc1c(CNc2cc(-c3cccc(OCC(O)CN)c3)nc3c2cnn3C(C)C)cnn1C (stereo not shown) [Example 37-1]
> 20 | CC(C)n1ncc2c(N[C@H]3CO[C@@H]4OCC[C@@H]43)cc(-c3cccc(OCC(O)CN)c3)nc21 (stereo partly shown) [Example 38-1]
5 to 10 | CNCC(O)COc1cccc(-c2cc(N(C)C3CCOCC3)c3cnn(C(C)C)c3n2)c1 (stereo not shown) [Example 40-1]
> 20 | CNCC(O)COc1cccc(-c2cc(NCC3CCOCC3)c3cnn(C(C)C)c3n2)c1 (stereo not shown) [Example 41-1]
> 20 | CC(C)n1ncc2c(N(C)CC3CCOCC3)cc(-c3cccc(OCC(O)CN)c3)nc21 (stereo not shown) [Example 42-1]
> 20 | CNCC(O)COc1cccc(-c2cc(NCCCCCCN)c3cnn(C(C)C)c3n2)c1 (stereo not shown) [Example 43-1]
10 to 20 | CNCC(O)COc1cccc(-c2cc(NCc3cnn(C)c3C)c3cnn(C(C)C)c3n2)c1 (stereo not shown) [Example 46-1]
> 20 | CNCC(O)COc1cccc(-c2cc(N[C@H]3CO[C@@H]4OCC[C@@H]43)c3cnn(C(C)C)c3n2)c1 (stereo partly shown) [Example 47-1]
10 to 20 | CNCC(O)COc1cccc(-c2cc(N(C)CC3CCOCC3)c3cnn(C(C)C)c3n2)c1 (stereo not shown) [Example 48-1]
> 20 | CC(C)n1ncc2c(NC(=O)NC3CCOCC3)cc(-c3cccc(OCC(O)CN)c3)nc21 (stereo not shown) [Example 49-1]
> 20 | CC(C)n1ncc2c(NCc3cnc4ccccn34)cc(-c3cccc(OCC(O)CN)c3)nc21 (stereo not shown) [Example 50-1]
> 20 | CC(C)n1ncc2c(NC(=O)OCc3ccccc3)cc(-c3cccc(OCC(O)CN)c3)nc21 (stereo not shown) [Example 51-1]
> 20 | CNCC(O)COc1cccc(-c2cc(N3CCC(C(=O)OC)CC3)c3cnn(C(C)C)c3n2)c1 (stereo not shown) [Example 52-1]
> 20 | CNCC(O)COc1cccc(-c2cc(NCc3cnc4ccccn34)c3cnn(C(C)C)c3n2)c1 (stereo not shown) [Example 53-1]
> 20 | CNCC(O)COc1cccc(-c2cc(NC(=O)OCc3ccccc3)c3cnn(C(C)C)c3n2)c1 (stereo not shown) [Example 54-1]
> 20 | COc1nc(C)cc(C)c1CNc1cc(-c2cccc(OCC(O)CN)c2)nc2c1cnn2C(C)C (stereo not shown) [Example 55-1]
> 20 | CNCC(O)COc1cccc(-c2cc(NCCNC(=O)c3cccnc3)c3cnn(C(C)C)c3n2)c1 (stereo not shown) [Example 56-1]
> 20 | CNCC(O)COc1cccc(-c2cc(NCCNC(=O)c3ccn(C)n3)c3cnn(C(C)C)c3n2)c1 (stereo not shown) [Example 58-1]
> 20 | CNCC(O)COc1cccc(-c2cc(NCCCNC(=O)c3cccnc3)c3cnn(C(C)C)c3n2)c1 (stereo not shown) [Example 59-1]
> 20 | CNCC(O)COc1cccc(-c2cc(NCCCNC(=O)c3ccn(C)n3)c3cnn(C(C)C)c3n2)c1 (stereo not shown) [Example 60-1]
> 20 | CNCC(O)COc1cccc(-c2cc(NCCCCNC(=O)c3cccnc3)c3cnn(C(C)C)c3n2)c1 (stereo not shown) [Example 61-1]
> 20 | CNCC(O)COc1cccc(-c2cc(NCCCCNC(=O)c3ccn(C)n3)c3cnn(C(C)C)c3n2)c1 (stereo not shown) [Example 62-1]
> 20 | CNCC(O)COc1cccc(-c2cc(NCCCCCNC(=O)c3cccnc3)c3cnn(C(C)C)c3n2)c1 (stereo not shown) [Example 63-1]
10 to 20 | CNCC(O)COc1cccc(-c2cc(NCCCCCCNC(=O)c3cccnc3)c3cnn(C(C)C)c3n2)c1 (stereo not shown) [Example 65-1]
